Measured values as given in ChEMBL document CHEMBL3779791, “Captopril analogues as metallo-β-lactamase inhibitors” (Bioorg Med Chem Lett, 2016).
The source made the active and inactive calls. No cut-off for these calls is given here.

Test system: Pseudomonas aeruginosa
Test: Competitive inhibition of Pseudomonas aeruginosa 101/1477 metallo-beta-lactamase IMP-1 expressed in Escherichia coli BL21 (DE3) using benzylpenicillin as substrate by spectrophotometric analysis

Kic	Structure (SMILES)
inactive	O=C(O)CCCC(=O)N1CCC[C@@H]1C(=O)O
inactive	O=C(O)CCC(=O)N1CCC[C@H]1C(=O)O
7.2 µM	O=C(O)[C@@H]1CCCN1C(=O)CCCS
5.8 µM	O=C(O)[C@H]1CCCN1C(=O)CCCS
9.9 µM	O=C(O)[C@@H]1CCCN1C(=O)CCS
inactive	O=C(O)CCC(=O)N1CCC[C@@H]1C(=O)O
2.9 µM	O=C(O)[C@H]1CCCN1C(=O)CCS
inactive	O=C(O)CC(=O)N1CCC[C@@H]1C(=O)O
inactive	O=C(O)CCCC(=O)N1CCC[C@H]1C(=O)O
inactive	O=C(O)CC(=O)N1CCC[C@H]1C(=O)O

Continued, compound first:

Structure (SMILES)	Kic
O=C(O)[C@@H]1CCCN1C(=O)CS	2.2 µM
O=C(O)C1CCCCN1C(=O)CCS (racemic)	10 µM
O=C(O)[C@H]1CCCN1C(=O)CS	2.3 µM
CC(=O)SCC(=O)N1CCCCC1C(=O)O (racemic)	24 µM
O=C(O)C1CCCCN1C(=O)CCCS (racemic)	7.1 µM
O=C(O)COC[C@H]1CCCN1C(=O)CCS	390 µM
O=C(O)COC[C@H]1CCCN1C(=O)CCCS	363 µM
O=C(O)COC[C@H]1CCCN1C(=O)CS	290 µM
O=C(O)C1CCCCN1C(=O)CS (racemic)	3.4 µM
